According to patent US10501451B2, “Selective NR2B antagonists” (BRISTOL-MYERS SQUIBB COMPANY, priority 2015, dated 2019):
Like-named read-outs stand apart in the source and are kept apart here.

Tests used:
Format in all cases: in vivo
[1] = molecular target: brain-resident NR2B-subtype receptors (Mus musculus (Mouse), UniProt P35438+Q01097); assay: Ex vivo occupancy assay; settings: iv, mouse
Procedure: (§1) Ex Vivo Occupancy Assay. […] 7-9 weeks old male CD-1 mice were dosed intravenously in a vehicle consisting of 10% dimethylacetamide, 40% PEG-400, 30% hydroxypropyl betacyclodextrin, and 30% water with experimental compounds and the forebrains were harvested 15 minutes post-dosing by decapitation. The brain samples were immediately snap-frozen and stored at −80° C. On the following day, the dosed brain samples were thawed on ice for 15-20 minutes followed by homogenization using Polytron for 10 seconds in cold homogenization buffer composed of 50 mM KH2PO4 (pH adjusted to 7.4 with KOH), 1 mM EDTA, 0.005% Triton X 100 and protease inhibitor cocktail (Sigma Aldrich). The crude homogenates were further homogenized using a Dounce homogenizer and the homogenized membrane aliquots from all animals were flash-frozen and stored at −80° C. until further use. The whole homogenization process was performed on ice. For determining occupancy, the membrane homogenates were first thawed on ice and then needle-homogenized using a 25 gauge needle. The homogenized membrane (6.4 mg/ml) was added to a 96-well plate followed by addition of ^3H Ro 25-6981 (6 nM). The reaction mixture was incubated for 5 minutes on a shaker at 4° C. and then harvested onto GF/B filter plates (treated with 0.5% PEI for 1 hr at room temperature). The filter plates were dried at 50° C. for 20 mins, incubated with microscint 20 for 10 minutes and read on TopCount (Perkin Elmer). Each dose or compound group consisted of 4-5 animals. The control group of animals was dosed with vehicle alone. Membrane from each animal was added in triplicates to the assay plate. Non-specific binding was determined using 10 μM Ro 25-6981 added to the wells containing membrane homogenates from vehicle-dosed animals. Specific counts/minute was converted to % occupancy at each dose of a compound for each animal using the following equation: […]
Drug levels were determined by mass spectroscopy in the usual manner. Drug levels in the blood plasma were 572 nM in at this dose, and drug levels in the homogenized brain tissue were 863 nM.

[2] = Drug levels in blood plasma and homogenized brain tissue by mass spectroscopy; settings: iv, mouse; for concentration at 15 min: male, 3 mg/Kg i.v., occupancy study
Procedure: as §1, with “animals.” for “animals. Specific counts/minute was converted to % occupancy at each dose of a compound for each animal using the following equation:”
Drug levels were determined by mass spectroscopy in the usual manner. […]
Mouse Forced Swim Test (mFST). […] The duration of immobility was evaluated during the total 6 min of the test and expressed as duration (sec) of immobility. […]

mice = assay: Mouse Forced Swim Test (mFST); settings: 1 mg/Kg i.v., 15 min before 6 min swim session
Procedure: Mouse Forced Swim Test (mFST). Forced Swim Test (FST) is an animal model used to assess antidepressant compounds in preclinical studies. The FST was performed similar to the method of Porsolt et al. with modifications (Porsolt R D, Bertin A, Jalfre M. Behavioral despair in mice: a primary screening test for antidepressants. Arch Int Pharmacodyn Thér 1977; 229:327-36). In this paradigm, mice are forced to swim in an inescapable cylinder filled with water. Under these conditions, mice will initially try to escape and eventually develop immobility behavior; this behavior is interpreted as a passive stress-coping strategy or depression-like behavior. […] The duration of immobility was evaluated during the total 6 min of the test and expressed as duration (sec) of immobility. […] All testing sessions were recorded with a video camera (Sony Handicam, Model: DCR-HC38E; PAL) and scoring was done using the Forced Swim Scan, Version 2.0 software (Clever Systems Inc., Reston, Va., USA; see Hayashi E, Shimamura M, Kuratani K, Kinoshita M, Hara H. Automated experimental system capturing three behavioral components during murine forced swim test. Life Sci. 2011 Feb. 28; 88(9-10):411-7 and Yuan P, Tragon T, Xia M, Leclair C A, Skoumbourdis A P, Zheng W, Thomas C J, Huang R, Austin C P, Chen G, Guitart X. Phosphodiesterase 4 inhibitors enhance sexual pleasure-seeking activity in rodents. […]

Sequence of brain-resident NR2B-subtype receptors (Q01097 27-1482, other chains not shown): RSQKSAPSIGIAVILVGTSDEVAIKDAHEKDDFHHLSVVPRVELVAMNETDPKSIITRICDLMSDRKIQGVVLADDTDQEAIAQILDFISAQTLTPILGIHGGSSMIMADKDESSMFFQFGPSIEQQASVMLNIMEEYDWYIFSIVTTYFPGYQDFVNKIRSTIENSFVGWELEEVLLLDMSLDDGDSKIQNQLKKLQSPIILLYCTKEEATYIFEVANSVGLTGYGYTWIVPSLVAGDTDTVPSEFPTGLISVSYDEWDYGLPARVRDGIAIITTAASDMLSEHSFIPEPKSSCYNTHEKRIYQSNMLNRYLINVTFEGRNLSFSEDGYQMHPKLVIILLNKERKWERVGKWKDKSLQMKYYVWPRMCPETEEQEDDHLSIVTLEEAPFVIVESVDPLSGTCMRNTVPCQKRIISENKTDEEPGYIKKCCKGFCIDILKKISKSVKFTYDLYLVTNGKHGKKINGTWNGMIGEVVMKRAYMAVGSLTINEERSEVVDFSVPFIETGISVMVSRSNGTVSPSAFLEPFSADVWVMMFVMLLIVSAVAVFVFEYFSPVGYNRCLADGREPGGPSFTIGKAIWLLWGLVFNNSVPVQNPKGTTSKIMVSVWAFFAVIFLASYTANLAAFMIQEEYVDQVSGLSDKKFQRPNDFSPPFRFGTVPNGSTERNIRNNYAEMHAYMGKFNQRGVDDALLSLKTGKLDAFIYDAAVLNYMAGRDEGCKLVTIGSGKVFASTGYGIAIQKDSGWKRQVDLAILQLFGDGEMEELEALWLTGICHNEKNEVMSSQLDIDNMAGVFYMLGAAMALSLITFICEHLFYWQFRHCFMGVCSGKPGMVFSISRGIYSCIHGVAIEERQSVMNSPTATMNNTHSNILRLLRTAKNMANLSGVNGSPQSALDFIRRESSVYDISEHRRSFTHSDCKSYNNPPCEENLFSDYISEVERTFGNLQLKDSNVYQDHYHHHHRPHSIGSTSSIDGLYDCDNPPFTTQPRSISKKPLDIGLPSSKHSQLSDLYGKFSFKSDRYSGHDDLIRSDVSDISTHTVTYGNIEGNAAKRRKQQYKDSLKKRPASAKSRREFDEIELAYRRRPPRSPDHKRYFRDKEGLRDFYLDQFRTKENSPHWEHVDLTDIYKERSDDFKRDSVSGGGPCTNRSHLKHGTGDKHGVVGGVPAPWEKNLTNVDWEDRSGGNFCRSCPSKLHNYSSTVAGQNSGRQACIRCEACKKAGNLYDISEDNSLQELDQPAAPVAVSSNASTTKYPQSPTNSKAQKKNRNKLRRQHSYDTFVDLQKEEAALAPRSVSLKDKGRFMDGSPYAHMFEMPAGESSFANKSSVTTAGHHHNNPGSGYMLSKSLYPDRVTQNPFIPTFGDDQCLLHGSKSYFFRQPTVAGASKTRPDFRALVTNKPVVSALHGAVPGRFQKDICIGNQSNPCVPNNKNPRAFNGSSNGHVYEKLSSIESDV

receptor occupancy at 1 mg/kg ([1]; 1 mg/Kg i.v., forced swim test animals): 69%
receptor occupancy at 3 mg/kg ([1]; 3 mg/Kg i.v., forebrain harvested 15 minutes post-dosing): 94%
concentration at 15 min ([2]; CD-1, brain, read-out: drug levels in the homogenized brain tissue): 863 nM
concentration at 15 min ([2]; CD-1, plasma, read-out: Drug levels in the blood plasma): 572 nM
concentration at 21 min ([2]; plasma, 1 mg/Kg i.v., at end of forced swim test): 207 nM
Structure (SMILES): Cc1ccc(CN2OCC(N3CCN(c4ccc(O)cn4)CC3)C2=O)cc1 (single isomer, unassigned) [Example 10, P-1, 4-(4-(5-hydroxypyridin-2-yl)piperazin-1-yl)-2-(4-methylbenzyl)isoxazolidin-3-one]
immobility time (mice): statistically significant decrease
